# Data taken from patent US20170106109A1 (priority 2010, published 2017).
# Legend:
# [1] = system: Ralstonia solanacearum; type: cell-based
# [2] = system: λ phage DNA HindIII Marker
# [3] = system: Escherichia coli; type: cell-based
# [4] = system: Ralstonia solanacearum; type: cell-based; remark: listed apart in the source
compound,measurement,setting,value
"OO [Sample 4-3, hydrogen peroxide]",survival of Ralstonia solanacearum,[1],a large amount of Ralstonia solanacearum survived
"OO [Sample 7-3, hydrogen peroxide]",DNA ladder on agarose electrophoresis,[2],the DNA ladder did not change
"OO [Sample 3-3, hydrogen peroxide]",survival of Escherichia coli,[3],a large amount of Escherichia coli survived
"OO [Sample 6-3, hydrogen peroxide]",change of bacterial density of Ralstonia solanacearum with time,[4],the bacterial density changed little
